Measured values from the supplement of paper PMC10307832.

Columns and labels:
Assay in all cases: relative viability (nuclei count vs DMSO), 5 days (fraction); higher = more cells survive
[1] = compound: COc1cc2ncn(-c3cc(OCc4ccccc4C(F)(F)F)c(C(N)=O)s3)c2cc1OC + CC(=O)c1c(C)c2cnc(Nc3ccc(N4CCNCC4)cn3)nc2n(C2CCCC2)c1=O [Palbociclib] (partner 0.5 µM)
Summary of the method: (§1)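 After 5 days of treatment, lung cancer cells in 1536-well plates were fixed and stained in a single step (final 0.05% Triton X-100, 1% formaldehyde, 1 ug/ml Hoechst) and their nuclei counted on 4× images. Treatment had been applied by pin tool the day after seeding as one drug alone or as a fixed anchor-drug dose with five library-drug doses (not always all listed) in √10 steps. Relative viability is the nuclei count of treated wells divided by that of vehicle wells, and values are medians of duplicate plates.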

[2] = compound: COc1cc2ncn(-c3cc(OCc4ccccc4C(F)(F)F)c(C(N)=O)s3)c2cc1OC + COc1cccc2cc(-c3nc([C@H]4CC[C@H](C(=O)O)CC4)n4ncnc(N)c34)[nH]c12 [OSI-027] (partner 0.5 µM)
Summary of the method: as §1

[3] = compound: COc1cc2ncn(-c3cc(OCc4ccccc4C(F)(F)F)c(C(N)=O)s3)c2cc1OC + COc1cc2c(Oc3ccc(NC(=O)C4(C(=O)Nc5ccc(F)cc5)CC4)cc3F)ccnc2cc1OCCCN1CCOCC1 [Foretinib] (partner 0.25 µM)
Summary of the method: as §1

[4] = compound: COc1cc2ncn(-c3cc(OCc4ccccc4C(F)(F)F)c(C(N)=O)s3)c2cc1OC
Summary of the method: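 A plate was accepted only when its control CV was below 25% and the cells had doubled at least once. Viability is defined from nuclear counts as treated wells divided by vehicle wells, with the median taken across plates. That median covers lung cancer cell lines grown in 1536-well plates, dosed by pinning at five √10-spaced library-drug concentrations, and counted in MetaXpress from 4× Hoechst images after 5 days.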

Cell Line	relative viability ([1]; first compound 0.05 µM)	relative viability ([1]; first compound 0.1581 µM)	relative viability ([1]; first compound 0.5 µM)	relative viability ([1]; first compound 1.581 µM)	relative viability ([1]; first compound 5 µM)	relative viability ([2]; first compound 0.05 µM)	relative viability ([2]; first compound 0.1581 µM)	relative viability ([2]; first compound 0.5 µM)	relative viability ([2]; first compound 5 µM)	relative viability ([3]; first compound 0.05 µM)	relative viability ([3]; first compound 0.1581 µM)	relative viability ([3]; first compound 0.5 µM)	relative viability ([3]; first compound 1.581 µM)	relative viability ([3]; first compound 5 µM)	relative viability ([4]; 0.05 µM)	relative viability ([4]; 0.1581 µM)	relative viability ([4]; 0.5 µM)	relative viability ([4]; 1.581 µM)	relative viability ([4]; 5 µM)	relative viability ([2]; first compound 1.581 µM)
201T	0.363	0.38	0.335	0.349	0.28	0.755	0.699	0.672	0.369	1.06	1.09	1.07	0.414	0.165	0.994	1.02	0.995	0.377	0.294	–
A-427	0.553	0.479	0.502	0.331	0.236	0.54	0.339	0.432	0.114	1.13	0.923	0.81	0.398	0.137	1.05	1	0.886	0.297	0.128	0.158
ABC-1	0.665	0.777	0.748	0.583	0.37	0.629	0.437	0.248	0.191	1.2	1.08	0.758	0.225	0.239	0.807	0.937	0.736	0.311	0.241	0.207
BEN	0.5	0.455	0.471	0.45	0.437	0.272	0.307	0.278	0.233	0.559	0.557	0.623	0.271	0.307	1.01	0.965	0.845	0.396	0.383	0.205
CAL-12T	0.411	0.422	0.381	0.187	0.148	0.535	0.411	0.149	0.141	0.981	0.974	0.907	0.193	0.216	0.827	0.836	0.565	0.249	0.193	0.129
COR-L23	0.27	0.335	0.22	0.119	0.111	0.697	0.644	0.679	0.0946	0.94	1.04	0.663	0.158	0.118	1.05	1.03	0.692	0.128	0.147	0.117
COR-L 105	0.396	0.4	0.424	0.325	0.321	0.591	0.823	0.526	0.211	1.2	1.2	1.17	0.391	0.302	0.908	0.903	0.654	0.407	0.272	0.298
Calu-6	–	–	–	–	–	–	–	–	–	0.791	0.612	0.203	0.0691	0.0725	0.956	0.835	0.268	0.117	0.11	–
ChaGo-K-1	0.948	0.878	0.649	0.247	0.147	0.622	0.531	0.32	0.134	0.915	0.89	0.71	0.266	0.172	1.04	0.991	0.948	0.335	0.2	0.182
EBC-1	–	–	–	–	–	–	–	–	–	0.0982	0.102	0.0761	0.0874	0.0751	0.924	0.929	0.301	0.19	0.157	–
EKVX	0.362	0.438	0.371	0.248	0.219	0.653	0.69	0.491	0.449	0.779	0.516	0.603	–	0.46	1.02	0.99	0.77	0.394	0.629	–
EMC-BAC-2	0.478	0.512	0.476	0.376	0.272	0.37	0.429	0.29	0.172	1.11	1.01	0.815	0.309	0.212	1.29	1.06	0.805	0.435	0.239	0.194
EPLC-272H	0.273	0.322	0.222	0.144	0.226	–	0.277	0.225	0.136	–	0.338	0.102	0.102	0.104	0.615	0.946	0.269	0.124	0.101	0.163
H3255	0.315	0.285	0.306	0.256	0.264	0.599	0.536	0.485	0.34	0.876	1.06	0.714	–	0.542	0.971	0.947	0.866	0.398	0.608	–
HARA	0.224	0.251	0.234	0.173	0.127	0.445	0.504	0.244	0.0396	1.03	0.886	0.734	0.11	0.0673	1.01	0.853	0.8	0.176	0.0967	0.0613
HCC-15	0.729	0.702	0.519	0.167	0.141	0.713	0.635	0.269	0.104	0.98	0.919	0.334	0.16	0.124	0.944	0.964	0.437	0.157	0.122	0.127
HCC-44	1.02	1.01	0.925	0.383	0.35	0.626	0.484	0.216	0.161	–	–	–	–	–	0.985	1	0.871	0.204	0.211	0.187
HCC-78	0.497	0.478	0.435	0.406	0.357	0.444	0.414	0.343	0.244	0.574	0.585	0.469	0.327	0.379	1.03	0.998	0.749	0.623	0.47	0.288

Cell Line	relative viability ([1]; first compound 0.05 µM)	relative viability ([1]; first compound 0.1581 µM)	relative viability ([1]; first compound 0.5 µM)	relative viability ([1]; first compound 1.581 µM)	relative viability ([1]; first compound 5 µM)	relative viability ([2]; first compound 0.05 µM)	relative viability ([2]; first compound 0.1581 µM)	relative viability ([2]; first compound 0.5 µM)	relative viability ([2]; first compound 5 µM)	relative viability ([3]; first compound 0.05 µM)	relative viability ([3]; first compound 0.1581 µM)	relative viability ([3]; first compound 0.5 µM)	relative viability ([3]; first compound 1.581 µM)	relative viability ([3]; first compound 5 µM)	relative viability ([4]; 0.05 µM)	relative viability ([4]; 0.1581 µM)	relative viability ([4]; 0.5 µM)	relative viability ([4]; 1.581 µM)	relative viability ([4]; 5 µM)	relative viability ([2]; first compound 1.581 µM)
HCC-366	0.136	0.372	0.248	0.0295	0.0149	1.1	0.814	0.182	0.0229	0.962	0.938	0.282	0.0269	0.0243	1.02	0.927	0.429	0.0311	0.0273	0.0338
HCC-827	0.442	0.391	0.486	0.424	0.217	0.794	0.9	0.564	0.14	1.04	0.987	0.718	0.277	0.213	1.04	0.986	0.901	0.541	0.341	0.228
HOP-62	0.411	0.417	0.403	0.148	0.107	0.846	0.888	0.537	0.144	1.16	1	1.03	0.295	0.139	1.03	1.01	0.861	0.336	0.161	0.226
IA-LM	–	–	–	–	–	–	–	–	–	1.16	0.987	0.328	0.0521	0.0505	0.865	0.81	0.109	0.0808	0.0819	–
LC-2-ad	0.457	0.422	0.401	0.237	0.194	0.813	0.754	0.393	0.254	0.916	0.946	0.506	0.286	0.303	0.941	0.918	0.351	0.195	0.227	0.289
LCLC-97TM1	0.216	0.191	0.17	0.0856	0.111	0.529	0.538	0.301	0.175	0.914	0.896	0.646	0.184	0.147	1.1	1.08	0.665	0.132	0.127	0.195
LCLC-103H	0.477	0.471	0.456	0.35	0.302	0.495	0.538	0.405	0.12	0.646	0.831	0.537	0.199	0.131	1.02	1.12	0.915	0.442	0.224	0.249
LK-2	0.78	0.293	0.444	0.252	0.113	0.197	0.221	0.17	0.138	1.27	0.987	0.266	0.163	0.135	1.07	1.03	0.446	0.222	0.211	0.173
LOU-NH91	0.529	0.479	0.517	0.446	0.333	0.677	0.772	0.656	0.682	0.933	0.978	0.754	0.423	0.713	0.97	1.03	0.801	0.455	0.531	0.525
LU99A	0.408	0.386	0.345	0.184	0.145	0.304	0.32	0.231	0.178	0.564	0.87	0.572	0.302	0.216	0.894	1.08	0.681	0.253	0.203	0.176
LXF-289	0.607	0.57	0.481	0.233	0.107	0.815	0.755	0.214	0.0476	0.92	0.858	0.483	0.158	0.0736	0.977	0.82	0.674	0.132	0.0998	0.0606
NCI-H23	0.313	0.408	0.285	0.148	0.121	0.638	0.561	0.316	0.0957	1.02	0.759	0.564	0.123	0.138	0.999	0.635	0.348	0.151	0.115	0.117
NCI-H596	–	–	–	–	–	0.758	0.759	0.429	0.253	1.03	0.908	0.481	0.307	0.242	0.946	1.04	0.756	0.406	0.284	0.222
NCI-H1299	–	–	–	–	–	–	–	–	–	1.1	1.07	0.664	0.255	0.257	1.01	1.02	0.718	0.269	0.318	–
NCI-H1563	–	–	–	–	–	0.853	0.687	0.798	0.488	0.839	0.897	1.28	0.767	0.567	1.02	0.984	0.888	0.865	0.654	0.57
NCI-H1648	0.222	0.309	0.234	0.273	0.255	0.255	0.219	0.244	0.198	–	–	–	–	–	1.04	0.919	0.404	0.241	0.181	0.238
NCI-H1703	–	–	–	–	–	–	–	–	–	0.308	–	0.303	–	0.15	1.1	0.886	0.52	0.148	0.194	–
NCI-H1792	0.728	0.631	0.568	0.377	0.332	0.815	0.661	0.315	0.251	–	–	–	–	–	1.11	0.894	0.403	0.16	0.103	0.269
